Among the data in US12527270B2, “Promoting regeneration and transformation in plants” (KWS SAAT SE & CO. KGAA, priority 2020, dated 2026) are transformation efficiency values, retold here.

This assay deals with Beta vulgaris calli. The assay can be described thus: DEX-inducible 35S-BnBBM-GR: shoot formation and callus-based transformation efficiency. The format is cell-based, Beta vulgaris (sugar beet). Particulars: BnBBM-GR with DEX-induction. On the procedure:
By applying the following method callus for Beta vulgaris (sugar beet) has been induced: Micropropagated shoots were used as starting material. Shoots were multiplied in medium containing MS salts, 30 g/l sucrose, 0.25 mg/l benzyladenine (BAP) and 10 g/l agar (pH 6.0). To induce friable callus, leaf explants were incubated for 7-8 weeks in media having MS salts, 15 g/l sucrose, 2 mg/l BAP, and 8 g/l agar (pH 6.0).
For Agrobacterium-mediated transformation friable calli were mounted in media containing MS salts, 30 g/l sucrose, 1 mg/l GA3, 1 mg/l TDZ, and 10 g/l agar (pH 6.0) and kept for 1 week in the dark at 24° C. Agrobacterium harbouring the vector of IPR232-pS-01 (FIG. 12) was grown in medium containing 5 g/l tryptone, 2.5 g/l yeast extract, 1 g/l NaCl, 5 g/l mannitol, 0.1 g/l MgSO4×7H2O, 0.25 g/l KH2PO4, 1 g/l glutamic acid (pH 7.0) supplemented with the appropriate antibiotics, at 28° C., for 24 h. […]
For quantification of transformation rate a) the inducible BnBBM system based on DEX/GR as described above as well as a constitutive overexpression of BnBBM have been tested on an amenable genotype and a recalcitrant genotype. […]

On to `C[C@@H]1C[C@H]2[C@@H]3CCC4=CC(=O)C=C[C@]4(C)[C@@]3(F)[C@@H](O)C[C@]2(C)[C@@]1(O)C(=O)CO` [DEX, dexamethasone], for which the transformation efficiency entry reads like this: (amenable genotype) “around 70%”; (recalcitrant genotype) “around 18%”.
